Laboratory results: ChEMBL document CHEMBL1124001, “Synthesis and antileukemic activity of bis[[(carbamoyl)oxy]methyl]- substituted pyrrolo[2,1-a]isoquinolines, pyrrolo[1,2-a]quinolines, pyrrolo[2,1-a]isobenzazepines, and pyrrolo[1,2-a]benzazepines” (J Med Chem, 1988)

Experiments:
Mus musculus [1] = experiment: Body weight change of test animals to that of control was determined after injection at 12.5 mg/kg intraperitoneally in CD2F1 mice; format: functional; conditions: route intraperitoneal
Mus musculus [2] = experiment: Net log cell kill was determined after injecting 3.16 mg/kg intraperitoneally in CD2F1 mice; format: functional; conditions: route intraperitoneal
Mus musculus [3] = experiment: Ratio of treated to that of untreated tumor-bearing control animals at 25 mg/kg intraperitoneally in CD2F1 mice was determined; format: functional; conditions: route intraperitoneal
Mus musculus [4] = experiment: Toxicity day survivors was determined by the ratio of animals survived to that of test animals at 6.25 mg/kg intraperitoneally in CD2F1 mice; 6/6; format: organism-based; design: dose 6.25 mg/kg, route intraperitoneal; conditions: in vivo, ip
Mus musculus [5] = experiment: Ratio of treated to that of untreated tumor-bearing control animals at 3.16 mg/kg intraperitoneally in CD2F1 mice was determined; format: functional; conditions: route intraperitoneal
Mus musculus [6] = experiment: Net log cell kill was determined after injecting 6.25 mg/kg intraperitoneally in CD2F1 mice; format: functional; conditions: route intraperitoneal
Mus musculus [7] = experiment: Body weight change of test animals to that of control was determined after injection at 50 mg/kg intraperitoneally in CD2F1 mice; format: functional; conditions: route intraperitoneal
Mus musculus [8] = experiment: Toxicity day survivors was determined by the ratio of animals survived to that of test animals at 12.5 mg/kg intraperitoneally in CD2F1 mice; 6/6; format: organism-based; design: dose 12.5 mg/kg, route intraperitoneal; conditions: in vivo, ip
Mus musculus [9] = experiment: Toxicity day survivors was determined by the ratio of animals survived to that of test animals at 100 mg/kg intraperitoneally in CD2F1 mice; 3/6; format: organism-based; design: dose 100 mg/kg, route intraperitoneal; conditions: in vivo, ip
Mus musculus [10] = experiment: Net log cell kill was determined after injecting 12.5 mg/kg intraperitoneally in CD2F1 mice; format: functional; conditions: route intraperitoneal
Mus musculus [11] = experiment: Body weight change of test animals to that of control was determined after injection at 100 mg/kg intraperitoneally in CD2F1 mice; format: functional; conditions: route intraperitoneal
Mus musculus [12] = experiment: Ratio of treated to that of untreated tumor-bearing control animals at 12.5 mg/kg intraperitoneally in CD2F1 mice was determined; format: functional; conditions: route intraperitoneal
Mus musculus [13] = experiment: Net log cell kill was determined after injecting 25 mg/kg intraperitoneally in CD2F1 mice; format: functional; conditions: route intraperitoneal
Mus musculus [14] = experiment: Toxicity day survivors was determined by the ratio of animals survived to that of test animals at 25 mg/kg intraperitoneally in CD2F1 mice; 6/6; format: organism-based; design: dose 25 mg/kg, route intraperitoneal; conditions: in vivo, ip
Mus musculus [15] = experiment: Ratio of treated to that of untreated tumor-bearing control animals at 6.25 mg/kg intraperitoneally in CD2F1 mice was determined; format: functional; conditions: route intraperitoneal
Mus musculus [16] = experiment: Toxicity day survivors was determined by the ratio of animals survived to that of test animals at 50 mg/kg intraperitoneally in CD2F1 mice; 6/6; format: organism-based; design: dose 50 mg/kg, route intraperitoneal; conditions: in vivo, ip
Mus musculus [17] = experiment: Body weight change of test animals to that of control was determined after injection at 25 mg/kg intraperitoneally in CD2F1 mice; format: functional; conditions: route intraperitoneal
Mus musculus [18] = experiment: Body weight change of test animals to that of control was determined after injection at 6.25 mg/kg intraperitoneally in CD2F1 mice; format: functional; conditions: route intraperitoneal
Mus musculus [19] = experiment: Toxicity day survivors was determined by the ratio of animals survived to that of test animals at 3.16 mg/kg intraperitoneally in CD2F1 mice; 6/6; format: organism-based; design: dose 3.16 mg/kg, route intraperitoneal; conditions: in vivo, ip
Mus musculus [20] = experiment: Body weight change of test animals to that of control was determined after injection at 3.16 mg/kg intraperitoneally in CD2F1 mice; format: functional; conditions: route intraperitoneal
Mus musculus [21] = experiment: (§1) Body weight change of test animals to that of control was determined after injection at 2.5 mg/kg intraperitoneally in CD2F1 mice; format: ADME, organism-based; design: dose 2.5 mg/kg, route intraperitoneal; conditions: in vivo, ip
Mus musculus [22] = experiment: Toxicity day survivors was determined by the ratio of animals survived to that of test animals at 5 mg/kg intraperitoneally in CD2F1 mice; 6/6; format: organism-based; design: dose 5 mg/kg, route intraperitoneal; conditions: in vivo, ip
Mus musculus [23] = experiment: Toxicity day survivors was determined by the ratio of animals survived to that of test animals at 40 mg/kg intraperitoneally in CD2F1 mice; 0/6; format: organism-based; design: dose 40 mg/kg, route intraperitoneal; conditions: in vivo, ip
Mus musculus [24] = experiment: Net log cell kill was determined after injecting 2.5 mg/kg intraperitoneally in CD2F1 mice; format: functional; conditions: route intraperitoneal
Mus musculus [25] = experiment: Toxicity day survivors was determined by the ratio of animals survived to that of test animals at 10 mg/kg intraperitoneally in CD2F1 mice; 6/6; format: organism-based; design: dose 10 mg/kg, route intraperitoneal; conditions: in vivo, ip
Mus musculus [26] = experiment: as §1; format: functional; conditions: route intraperitoneal
Mus musculus [27] = experiment: Body weight change of test animals to that of control was determined after injection at 5 mg/kg intraperitoneally in CD2F1 mice; format: functional; conditions: route intraperitoneal
Mus musculus [28] = experiment: Ratio of treated to that of untreated tumor-bearing control animals at 2.5 mg/kg intraperitoneally in CD2F1 mice was determined; format: functional; conditions: route intraperitoneal
Mus musculus [29] = experiment: Body weight change of test animals to that of control was determined after injection at 10 mg/kg intraperitoneally in CD2F1 mice; format: functional; conditions: route intraperitoneal
Mus musculus [30] = experiment: Net log cell kill was determined after injecting 10 mg/kg intraperitoneally in CD2F1 mice; format: functional; conditions: route intraperitoneal
Mus musculus [31] = experiment: Body weight change of test animals to that of control was determined after injection at 20 mg/kg intraperitoneally in CD2F1 mice; format: functional; conditions: route intraperitoneal
Mus musculus [32] = experiment: Toxicity day survivors was determined by the ratio of animals survived to that of test animals at 2.5 mg/kg intraperitoneally in CD2F1 mice; 6/6; format: organism-based; design: dose 2.5 mg/kg, route intraperitoneal; conditions: in vivo, ip
Mus musculus [33] = experiment: Ratio of treated to that of untreated tumor-bearing control animals at 5 mg/kg intraperitoneally in CD2F1 mice was determined; format: functional; conditions: route intraperitoneal
Mus musculus [34] = experiment: Ratio of treated to that of untreated tumor-bearing control animals at 10 mg/kg intraperitoneally in CD2F1 mice was determined; format: functional; conditions: route intraperitoneal
Mus musculus [35] = experiment: Toxicity day survivors was determined by the ratio of animals survived to that of test animals at 20 mg/kg intraperitoneally in CD2F1 mice; 6/6; format: organism-based; design: dose 20 mg/kg, route intraperitoneal; conditions: in vivo, ip
Mus musculus [36] = experiment: Net log cell kill was determined after injecting 5 mg/kg intraperitoneally in CD2F1 mice; format: functional; conditions: route intraperitoneal

`COc1ccc2c(c1)CCn1c(C)c(COC(=O)NC(C)C)c(COC(=O)NC(C)C)c1-2` was tested, and the T-C (Mus musculus [1]) was -3 g, the KE (Mus musculus [2]) was -1.43 and the T/C (Mus musculus [3]) was 153%. The TDS (Mus musculus [4]) was 6, the T/C (Mus musculus [5]) was 142% and the KE (Mus musculus [6]) was -1.51. For the same molecule, the T-C (Mus musculus [7]) was -6.6 g, the TDS (Mus musculus [8]) was 6 and the TDS (Mus musculus [9]) was 3. The KE (Mus musculus [10]) was -1.29, the T-C (Mus musculus [11]) was -5.3 g and the T/C (Mus musculus [12]) was 153%. For the same molecule, the KE (Mus musculus [13]) was -1.29, the TDS (Mus musculus [14]) was 6 and the T/C (Mus musculus [15]) was 136%. It also gave a TDS (Mus musculus [16]) of 6, a T-C (Mus musculus [17]) of -5.6 g and a T-C (Mus musculus [18]) of -2.1 g. It also gave a TDS (Mus musculus [19]) of 6 and a T-C (Mus musculus [20]) of -1.1 g.
For `CNC(=O)OCc1c(COC(=O)NC)c2n(c1C)-c1ccccc1CCC2`, the TDS (Mus musculus [21]) was 6, the TDS (Mus musculus [22]) was 6 and the TDS (Mus musculus [23]) was 0. For the same molecule, the KE (Mus musculus [24]) was 1.19, the TDS (Mus musculus [25]) was 6 and the T-C (Mus musculus [26]) was -1.7 g. The T-C (Mus musculus [27]) was -0.9 g, the T/C (Mus musculus [28]) was 154% and the T-C (Mus musculus [29]) was -2.2 g. For the same molecule, the KE (Mus musculus [30]) was 1, the T-C (Mus musculus [31]) was -2.6 g and the TDS (Mus musculus [32]) was 6. It also gave a T/C (Mus musculus [33]) of 147%, a T/C (Mus musculus [34]) of 152% and a TDS (Mus musculus [35]) of 6. The KE (Mus musculus [36]) was 0.55.
